# Data: patent US8802597B2, “Herbicidal pyrimidines” (E I du Pont de Nemours and Company, priority 2003, dated 2014)
# Assays:
# Assay type in all cases: in vivo
# [1] = system: common ragweed (Ambrosia elatior); assay: Test C pre/postemergence; conditions: for Plant response rating (scale of 0 to 100), Ragweed / Ragweed plant response rating: Postemergence; for Ragweed plant response rating: 125 g ai/ha, scale 0 to 100 (0 no effect, 100 complete control); for Plant response rating, Ragweed: Preemergence, scale 0 to 100, 0 no effect, 100 complete control
# Procedure, shortened: (§1)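 Injury scored visually 12–14 days after application on 0–100 scale (100 = complete control), relative to controls. Compounds, formulated with surfactant in non-phytotoxic solvent, applied to soil at planting (pre) or to 1- to 4-leaf plants 2–18 cm tall (post) in greenhouse.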
# [2] = system: lambsquarters (Chenopodium album); assay: Test C pre/postemergence; conditions: for Plant response rating (scale of 0 to 100), Lambsquarters / Lambsquarters plant response rating: Postemergence; for Lambsquarters plant response rating: scale 0 to 100 (0 no effect, 100 complete control); for Plant response rating, Lambsquarters: Preemergence
# Procedure, shortened: as §1
# [3] = system: cocklebur (Xanthium strumarium); assay: Test C pre/postemergence; conditions: for Plant response rating (scale of 0 to 100), Cocklebur / Cocklebur plant response rating: Postemergence; for Cocklebur plant response rating: scale 0 to 100 (0 no effect, 100 complete control); for Plant response rating, Cocklebur: Preemergence
# Procedure, shortened: as §1
# [4] = system: corn (Zea mays); assay: Test C pre/postemergence; conditions: for Plant response rating, Corn: Preemergence
# Procedure, shortened: as §1
# [5] = system: giant foxtail (Setaria faberi); assay: Test A pre/postemergence
# Procedure, shortened: (§2)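 Greenhouse herbicide test with preemergence directed soil spray and postemergence foliar spray at the 1- to 2-leaf stage; visual control rating 0–100 versus untreated at ~10 days.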
# [6] = system: crabgrass (Digitaria sanguinalis); assay: Test A pre/postemergence
# Procedure, shortened: as §2
# [7] = system: barnyardgrass (Echinochloa crus-galli); assay: Test A pre/postemergence
# Procedure, shortened: as §2
# [8] = system: morningglory (Ipomoea spp.); assay: Test A pre/postemergence
# Procedure, shortened: as §2
# [9] = system: redroot pigweed (Amaranthus retroflexus); assay: Test A pre/postemergence
# Procedure, shortened: as §2
# [10] = system: velvetleaf (Abutilon theophrasti); assay: Test A pre/postemergence
# Procedure, shortened: as §2
# [11] = system: chickweed (Stellaria media); assay: Test C postemergence
# Procedure, shortened: as §1
# [12] = 16 g ai/ha, scale 0 to 100, 0 no effect, 100 complete control
# [13] = 31 g ai/ha, scale 0 to 100, 0 no effect, 100 complete control
# [14] = 62 g ai/ha, scale 0 to 100, 0 no effect, 100 complete control
# [15] = Postemergence, 125 g ai/ha, 0 to 100 scale (0 no effect, 100 complete control)
# [16] = Postemergence, 500 g ai/ha, 0 to 100 scale (0 no effect, 100 complete control)
# [17] = Preemergence, 125 g ai/ha, 0 to 100 scale where 0 is no effect and 100 is complete control, approximately ten days
# [18] = Preemergence, 500 g ai/ha, 0 to 100 scale where 0 is no effect and 100 is complete control, approximately ten days
structure (smiles),measurement,setting,value
Nc1nc(-c2ccc(Cl)cc2)nc(C(=O)[O-])c1Cl.[Na+] [Compound 117],"Plant response rating (scale of 0 to 100), Ragweed",[1]; 16 g ai/ha,95
same,"Plant response rating (scale of 0 to 100), Ragweed",[1]; 31 g ai/ha,95
same,"Plant response rating (scale of 0 to 100), Ragweed",[1]; 62 g ai/ha,100
same,Ragweed plant response rating,[1],100
same,"Plant response rating, Ragweed",[1]; 16 g ai/ha,60
same,"Plant response rating, Ragweed",[1]; 31 g ai/ha,60
same,"Plant response rating, Ragweed",[1]; 62 g ai/ha,90
same,"Plant response rating (scale of 0 to 100), Lambsquarters",[2]; 16 g ai/ha,95
same,"Plant response rating (scale of 0 to 100), Lambsquarters",[2]; 31 g ai/ha,95
same,"Plant response rating (scale of 0 to 100), Lambsquarters",[2]; 62 g ai/ha,95
same,Lambsquarters plant response rating,[2]; 125 g ai/ha,95
same,"Plant response rating, Lambsquarters",[2]; [12],20
same,"Plant response rating, Lambsquarters",[2]; [13],100
same,"Plant response rating, Lambsquarters",[2]; [14],100
same,"Plant response rating, Lambsquarters","[2]; 125 g ai/ha, scale 0 to 100",100
same,"Plant response rating (scale of 0 to 100), Cocklebur",[3]; 16 g ai/ha,90
same,"Plant response rating (scale of 0 to 100), Cocklebur",[3]; 62 g ai/ha,90
same,Cocklebur plant response rating,[3]; 125 g ai/ha,90
same,"Plant response rating, Cocklebur",[3]; [12],0
same,"Plant response rating, Cocklebur",[3]; [13],0
same,"Plant response rating, Cocklebur",[3]; [14],5
same,"Plant response rating, Cocklebur","[3]; 125 g ai/ha, scale 0 to 100",90
same,"Plant response rating (scale of 0 to 100), Corn","[4]; Postemergence, 16 g ai/ha",30
same,"Plant response rating (scale of 0 to 100), Corn","[4]; Postemergence, 31 g ai/ha",30
same,"Plant response rating, Corn",[4]; [12],0
same,"Plant response rating, Corn",[4]; [13],5
same,"Plant response rating, Corn",[4]; [14],20
same,"Plant response rating, Corn","[4]; 125 g ai/ha, scale 0 to 100",25
same,"Plant response rating, Foxtail, Giant",[5]; [15],80
same,"Plant response rating, Foxtail, Giant",[5]; [16],90
same,"Plant response rating, Foxtail, Giant",[5]; [17],50
same,"Plant response rating, Foxtail, Giant",[5]; [18],85
same,"Plant response rating, Crabgrass",[6]; [15],75
same,"Plant response rating, Crabgrass",[6]; [16],90
same,"Plant response rating, Crabgrass",[6]; [17],45
same,"Plant response rating, Crabgrass",[6]; [18],75
same,"Plant response rating, Barnyardgrass",[7]; [15],85
same,"Plant response rating, Barnyardgrass",[7]; [16],90
same,"Plant response rating, Barnyardgrass",[7]; [17],25
same,"Plant response rating, Barnyardgrass",[7]; [18],85
same,"Plant response rating, Morningglory",[8]; [15],90
same,"Plant response rating, Morningglory",[8]; [16],90
same,"Plant response rating, Morningglory",[8]; [17],10
same,"Plant response rating, Morningglory",[8]; [18],85
same,"Plant response rating, Pigweed",[9]; [15],100
same,"Plant response rating, Pigweed",[9]; [16],100
same,"Plant response rating, Pigweed",[9]; [17],65
same,"Plant response rating, Pigweed",[9]; [18],100
same,"Plant response rating, Velvetleaf",[10]; [15],100
same,"Plant response rating, Velvetleaf",[10]; [16],100
same,"Plant response rating, Velvetleaf",[10]; [17],55
same,"Plant response rating, Velvetleaf",[10]; [18],100
same,"Plant response rating (scale of 0 to 100), Chickweed",[11]; 16 g ai/ha,30
same,"Plant response rating (scale of 0 to 100), Chickweed",[11]; 62 g ai/ha,40
Nc1nc(-c2ccc(Br)cc2)nc(C(=O)O)c1Br [Compound 136],"Plant response rating (scale of 0 to 100), Ragweed",[1]; 16 g ai/ha,75
same,"Plant response rating (scale of 0 to 100), Ragweed",[1]; 31 g ai/ha,85
same,"Plant response rating (scale of 0 to 100), Ragweed",[1]; 62 g ai/ha,90
same,Ragweed plant response rating,[1],95
same,"Plant response rating (scale of 0 to 100), Lambsquarters",[2]; 16 g ai/ha,95
same,"Plant response rating (scale of 0 to 100), Lambsquarters",[2]; 31 g ai/ha,95
same,"Plant response rating (scale of 0 to 100), Lambsquarters",[2]; 62 g ai/ha,95
same,Lambsquarters plant response rating,[2]; 125 g ai/ha,95
same,"Plant response rating (scale of 0 to 100), Cocklebur",[3]; 16 g ai/ha,95
same,"Plant response rating (scale of 0 to 100), Cocklebur",[3]; 31 g ai/ha,100
same,"Plant response rating (scale of 0 to 100), Cocklebur",[3]; 62 g ai/ha,100
same,Cocklebur plant response rating,[3]; 125 g ai/ha,100
same,"Plant response rating (scale of 0 to 100), Corn","[4]; Postemergence, 16 g ai/ha",35
same,"Plant response rating (scale of 0 to 100), Corn","[4]; Postemergence, 31 g ai/ha",35
same,"Plant response rating (scale of 0 to 100), Corn","[4]; Postemergence, 62 g ai/ha",65
same,Corn plant response rating,"[4]; Postemergence, 125 g ai/ha, scale 0 to 100 (0 no effect, 100 complete control)",75
same,"Plant response rating, Foxtail, Giant",[5]; [15],75
same,"Plant response rating, Foxtail, Giant",[5]; [16],80
same,"Plant response rating, Foxtail, Giant",[5]; [17],10
same,"Plant response rating, Foxtail, Giant",[5]; [18],60
same,"Plant response rating, Crabgrass",[6]; [15],35
same,"Plant response rating, Crabgrass",[6]; [16],70
same,"Plant response rating, Crabgrass",[6]; [17],20
same,"Plant response rating, Crabgrass",[6]; [18],60
same,"Plant response rating, Barnyardgrass",[7]; [15],50
same,"Plant response rating, Barnyardgrass",[7]; [16],80
same,"Plant response rating, Barnyardgrass",[7]; [17],5
same,"Plant response rating, Barnyardgrass",[7]; [18],40
same,"Plant response rating, Morningglory",[8]; [15],70
same,"Plant response rating, Morningglory",[8]; [16],80
same,"Plant response rating, Morningglory",[8]; [17],10
same,"Plant response rating, Morningglory",[8]; [18],20
same,"Plant response rating, Pigweed",[9]; [15],85
same,"Plant response rating, Pigweed",[9]; [16],100
same,"Plant response rating, Pigweed",[9]; [17],45
same,"Plant response rating, Pigweed",[9]; [18],100
same,"Plant response rating, Velvetleaf",[10]; [15],85
same,"Plant response rating, Velvetleaf",[10]; [16],95
same,"Plant response rating, Velvetleaf",[10]; [17],30
same,"Plant response rating, Velvetleaf",[10]; [18],75
same,"Plant response rating (scale of 0 to 100), Chickweed",[11]; 16 g ai/ha,45
same,"Plant response rating (scale of 0 to 100), Chickweed",[11]; 31 g ai/ha,50
same,"Plant response rating (scale of 0 to 100), Chickweed",[11]; 62 g ai/ha,50
same,Chickweed plant response rating,"[11]; 125 g ai/ha, scale 0 to 100 (0 no effect, 100 complete control)",50
